Reference: US6924145B1, “Selection method” (Danisco A/S, priority 1998, dated 2005)

Legend:
[1] = tested on: immature wheat embryos; test: Toxicity of galactose to immature wheat embryos (germination and shoot growth); assay type: cell-based, Triticum aestivum; details: 20 g/l sucrose, relative to control medium (no galactose) = 100
Protocol: In order to be useful for selection, the selective component (otherwise called selective agent) should not be able to sustain significant growth and preferably have adverse/toxic effects to the non-transformed cells/tissues. To assess the applicability of galactose selection following transformation, a number of plant species representing a range of different botanical families were tested for sensitivity to galactose, using explants which may be suitable for transformation experiments. As an example of a monocotyledonous species, wheat was studied. Immature wheat embryos (2-3 weeks old, a total of 161) were carefully removed from the seed and were cultivated on Gamborg B5 medium (Gamborg et al. 1968. Exp. Cell Res. 50: 151-158) supplemented with 9.0 g/l Bacto agar. 20 g/l sucrose and galactose according to the experiment. The embryos were cultivated in the dark for about 10 days where germinated embryos were transferred to fresh medium of the same composition and cultivated in a 16 h/8 h day/night regime for 4-5 weeks. The effect of galactose was evaluated by the number of germinated embryos and by measuring the length of the leaf on these embryos, relative to the control medium (no galactose).

[2] = tested on: sugar beet cotyledonary explants; test: Toxicity of galactose to sugar beet cotyledonary explants; assay type: cell-based, Beta vulgaris; details: 20 g/l sucrose and various concentrations galactose; 4-5 weeks
Protocol: In order to be useful for selection, the selective component (otherwise called selective agent) should not be able to sustain significant growth and preferably have adverse/toxic effects to the non-transformed cells/tissues. To assess the applicability of galactose selection following transformation, a number of plant species representing a range of different botanical families were tested for sensitivity to galactose, using explants which may be suitable for transformation experiments. Cotyledonary explants useful for the transformation of sugar beet were prepared by excising the cotyledons from […] seedlings (Joersbo er al. 1998. Mol. Breeding 4: 111-117). The leaves were transferred to modified MS-medium (Murashiee and Skoog 1962. Physiol. Plant. 15: 473-497) containing 20 g/l sucrose and various concentrations galactose.

[3] = tested on: potato leaf explants; test: Toxicity of galactose to potato leaf explants (shoot regeneration); assay type: cell-based, Solanum tuberosum
Protocol: In order to be useful for selection, the selective component (otherwise called selective agent) should not be able to sustain significant growth and preferably have adverse/toxic effects to the non-transformed cells/tissues. To assess the applicability of galactose selection following transformation, a number of plant species representing a range of different botanical families were tested for sensitivity to galactose, using explants which may be suitable for transformation experiments. Young leaves useful for the transformation of potato were prepared from leaves of 28 d old in vitro shoot cultures. The leaves were cut off avoiding the meristem at the leaf corner and were cut twice across the […]. The explants were then put on modified MS-medium (Murashige and Skoog 1962. Physiol. Plant. 15: 473-497) containing various concentrations of sucrose and galactose. After 3 weeks, shoots were harvested and the explants were transferred to fresh medium of the same composition. This was repeated for 2 more harvests and the total number of explants with regenerated shoots formed on each medium was calculated (see table below).

[4] = tested on: pea hypocotyl explants; test: Toxicity of galactose to pea hypocotyl explants; assay type: cell-based, Pisum sativum; details: after 5 weeks; versus control medium with 20 g/l sucrose (no galactose)
Protocol: In order to be useful for selection, the selective component (otherwise called selective agent) should not be able to sustain significant growth and preferably have adverse/toxic effects to the non-transformed cells/tissues. To assess the applicability of galactose selection following transformation, a number of plant species representing a range of different botanical families were tested for sensitivity to galactose, using explants which may be suitable for transformation experiments. Hypocotyl explants useful for the transformation of pea were prepared by excising the hypocotyl from 7 d old seedlings and transferred to a medium, according to Nielsen er al. (1991. Physiol. Plant 82: 99-102), containing various concentrations of sucrose and galactose. After 5 weeks, the growth of the explants were evaluated.

[5] = tested on: sunflower explants; test: Toxicity of galactose to sunflower apical explants (fresh weight); assay type: cell-based, Helianthus annuus; details: 20 g/l sucrose, 4-5 weeks, above controls on medium devoid of carbohydrate
Protocol: (§1) In order to be useful for selection, the selective component (otherwise called selective agent) should not be able to sustain significant growth and preferably have adverse/toxic effects to the non-transformed cells/tissues. To assess the applicability of galactose selection following transformation, a number of plant species representing a range of different botanical families were tested for sensitivity to galactose, using explants which may be suitable for transformation experiments.
The preparation of apical explants useful for the transformation of sunflower were modified according to Knittel et al. (1994. Plant Cell Rep. 14: 81-86). The seed coats of 2 d old seedlings were gently removed and the cotyledons, the emerging root and the top of the apex were removed. The remaining part of the apex was cut off and divided into two halves and cultivated according to Knittel et al., with 20 g/l sucrose in the medium and galactose according to the experiment. After 4-5 weeks of culture at a 16 h/8 h day/night regime, growth was monitored by determining the fresh weight of the explants (above controls grown on a medium devoid of any carbohydrate source).

[6] = tested on: tissues of barley; details: Roberts et al.; cited from earlier work
[7] = tested on: tissues of maize; details: Roberts et al.; cited from earlier work
[8] = tested on: oil seed rape hypocotyl explants inoculated with Agrobacterium tumefaciens EHA101; test: Selection of transgenic oil seed rape on galactose containing media; assay type: cell-based, Brassica napus; details: galactose 2.5 g/l, sucrose 10 g/l
Protocol: Hypocotyl explants of oil seed rape were prepared using a protocol modified according to Radke et al. (1988. Theor. Appl. Genet. 78: 161-168). Hypocotyls of 5 d old seedlings were cut into 1 cm segments and inoculated with a suspension of Agrobacterium tumefaciens strain EHA101 (OD660=0.1-0.5, prepared according to standard procedures). After inoculation, the explants were dried carefully on filterpaper before co-cultivation.
After co-culture, the explants were transferred to selection medium consisting of modified MS-medium (Murashige and Skoog 1962. Physiol. Plant. 15: 473-497) supplemented with 500 mg/l carbenicillin and various concentrations of sucrose and galactose. After 7-8 weeks, shoots were harvested and transgenicity was evaluated by subjecting the harvested shoots to the assay for β-glucuronidase activity (Jefferson et al. 1987. Plant Mol. Biol. Rep. 5: 387-405), a marker enzyme encoded by a gene placed adjacent the selective gene on the T-DNA of the transformation vector (FIG. 3).

[9] = tested on: oil seed rape hypocotyl explants; test: Toxicity of galactose to oil seed rape hypocotyl explants (shoot regeneration); assay type: cell-based, Brassica napus
Protocol: as §1
Hypocotyl explants useful for the transformation of oil seed rape were prepared using a protocol modified after Radke et al. (1988. Theor. Appl. Genet. 78: 161-168). Hypocotyls of 5 d old seedlings were cut into 1 cm segments and transferred to modified MS-medium (Murashige and Skoog 1962. Physiol. Plant. 15: 473-497) containing sucrose and galactose according to the experiment. After 3-4 weeks, shoots were harvested and the explants were transferred to fresh medium of the same composition. This was repeated for 3 more harvests and the total number of regenerated shoots formed on each medium was calculated (see table below).

[10] = tested on: Petunia; test: Sensitivity of Petunia to galactose; assay type: cell-based
Protocol: as §1

[11] = tested on: potato explants transformed with pVIC-galT; test: Selection of transgenic potato shoots (galT vector) on galactose containing media; assay type: cell-based, Solanum tuberosum; details: for No. of transgenic shoots: GUS assay
Protocol: Young leaves useful for the transformation of potato were prepared from leaves of 28 d old in vitro shoot cultures. The leaves were cut off avoiding the meristem at the leaf corner and were cut twice across the midvein. The explants were inoculated for 30 min. with a suspension of Agrobacterium tumefaciens strain EHA101 (OD660=0.5) harbouring the transformation vector described above. After inoculation, the explants were dried carefully on filterpaper and left for co-cultivation for 3 d in dim light.
After co-culture, the explants were transferred to selection medium consisting of MS-medium (Murashige and Skoog 1962. Physiol. Plant. 15: 473-497) supplemented with 500 mg/l carbenicillin and various concentrations of sucrose and galactose. After 3 and 6 weeks, shoots were harvested and transgenicity was evaluated by subjecting the harvested shoots to the assay for β-glucuronidase activity (Jefferson et al. 1987. Plant Mol. Biol. Rep. 5: 387-405), a marker enzyme encoded by a gene placed adjacent the selective gene on the T-DNA of the transformation vector (FIG. 4).

[12] = 2.5 g/l galactose, sucrose 0 g/l
[13] = 2.5 g/l galactose, sucrose 5.0 g/l
[14] = 2.5 g/l galactose, sucrose 10 g/l
[15] = 2.5 g/l galactose, sucrose 20 g/l
[16] = 5.0 g/l galactose, sucrose 0 g/l
[17] = 5.0 g/l galactose, sucrose 5.0 g/l
[18] = 5.0 g/l galactose, sucrose 10 g/l
[19] = 5.0 g/l galactose, sucrose 20 g/l
[20] = galactose 1.25 g/l, sucrose 10 g/l
[21] = galactose 1.25 g/l, sucrose 15 g/l
[22] = galactose 1.25 g/l, sucrose 20 g/l
[23] = galactose 2.5 g/l, sucrose 10 g/l
[24] = galactose 2.5 g/l, sucrose 15 g/l
[25] = galactose 2.5 g/l, sucrose 20 g/l

SMILES: OC[C@H]1OC(O)[C@H](O)[C@@H](O)[C@H]1O (mixture of isomers) [galactose]
- Average shoot length ([1]; galactose 2.5 g/l): 89
- Germination of embryos ([1]; galactose 2.5 g/l): 43
- Average shoot length ([1]; galactose 5.0 g/l): 67
- Germination of embryos ([1]; galactose 5.0 g/l): 29
- Average shoot length ([1]; galactose 7.5 g/l): 0
- Germination of embryos ([1]; galactose 7.5 g/l): 0
- Average shoot length ([1]; galactose 10 g/l): 33
- Germination of embryos ([1]; galactose 10 g/l): 14
- Average shoot length ([1]; galactose 15 g/l): 0
- Germination of embryos ([1]; galactose 15 g/l): 0
- fresh weight of the explants [2]: significant reduction
- number of shoots [2]: significant reduction
- total number of explants with regenerated shoots [3, 12]: 1
- total number of explants with regenerated shoots [3, 13]: 0
- total number of explants with regenerated shoots [3, 14]: 0
- total number of explants with regenerated shoots [3, 15]: 7
- total number of explants with regenerated shoots [3, 16]: 0
- total number of explants with regenerated shoots [3, 17]: 0
- total number of explants with regenerated shoots [3, 18]: 0
- total number of explants with regenerated shoots [3, 19]: 0
- growth of the explants [4]: unable to sustain any growth
- Fresh weight ([5]; galactose 5.0 g/l): 28 mg/explant
- Fresh weight ([5]; galactose 7.5 g/l): 0 mg/explant
- Fresh weight ([5]; galactose 10 g/l): 0 mg/explant
- Fresh weight ([5]; galactose 15 g/l): 0 mg/explant
- toxicity to tissues of barley [6]: toxic
- toxicity to tissues of maize [7]: toxic
- Transformation frequency (%) [8]: 1.0%
- No. of transgenic shoots ([8]; shoots more than 50% β-glucuronidase-positive, 7-8 weeks): 4
- total number of regenerated shoots [9, 12]: 0
- total number of regenerated shoots [9, 13]: 1
- total number of regenerated shoots [9, 14]: 7
- total number of regenerated shoots [9, 15]: 26
- total number of regenerated shoots [9, 16]: 0
- total number of regenerated shoots [9, 17]: 0
- total number of regenerated shoots [9, 18]: 3
- total number of regenerated shoots [9, 19]: 22
- sensitivity to galactose (level of toxicity) [10]: fairly tolerant
- ability of galactose to sustain growth ([10]; stated for all tested plant species incl. Petunia): unable to sustain growth
- Transformation frequency (%) [11, 20]: 6.0%
- No. of transgenic shoots [11, 20]: 3
- Transformation frequency (%) [11, 21]: 14.0%
- No. of transgenic shoots [11, 21]: 7
- Transformation frequency (%) [11, 22]: 6.0%
- No. of transgenic shoots [11, 22]: 3
- Transformation frequency (%) [11, 23]: 2.0%
- No. of transgenic shoots [11, 23]: 1
- Transformation frequency (%) [11, 24]: 0%
- No. of transgenic shoots [11, 24]: 0
- Transformation frequency (%) [11, 25]: 8.0%
- No. of transgenic shoots [11, 25]: 4
